Literature values as cited in patent US20070259053A1, “Inhibition of nephrotoxicity induced by Trasylol® and like agents” (priority 2006, published 2007).
Like-named read-outs stand apart in the source and are kept apart here.

Experiments:
[1] = test system: gentamicin induced renal toxic effects
[2] = test system: mercury induced acute renal failure; settings: in vivo
[3] = test system: renal accumulation of lysozyme; settings: microinfusion experiments
[4] = test system: renal accumulation of gentamicin
[5] = test system: isolated renal brush border membranes; settings: for effect on binding of gentamicin to isolated renal brush border membranes: isolated BBM
BBM = settings: for effect on binding of albumins of increased isoelectric points to BBM: b13: pH 6.5, pI 8.5 albumins
[6] = test system: toxic effects of spermine and gentamicin
[7] = test system: renal toxic effects of cisplatin; settings: bird
[8] = test system: renal toxic effects of cisplatin; settings: rat
kidney = settings: noted by autoradiography

Clc1cccc(Cl)c1N=C1NCCN1 [Clonidine]
effect on gentamicin induced renal toxic effects ([1]; rat kidney): inhibited
effect on mercury induced acute renal failure [2]: protected

N=C(N)NCCC[C@H](N)C(=O)O [L-arginine]
effect on renal accumulation of lysozyme [3]: inhibited

C[n+]1cccc(C(N)=O)c1 [N′-methylnicotinamide]
effect on renal accumulation of gentamicin ([4]; rats): inhibited
effect on urinary excretion of gentamicin ([4]; rats): increased

[Cd] [cadmium]
effect on gentamicin accumulation in the renal cortex ([4]; cadmium treated animals): reduced

[Ca+2] [calcium]
effect on binding of gentamicin to isolated renal brush border membranes [5]: competitive inhibitor
effect on binding of lysozyme to BBM (BBM): decreased
effect on binding of albumins of increased isoelectric points to BBM (BBM): decreased
effect on binding of albumins of increased isoelectric points to BBM (BBM; listed as Ca^++): inhibited
effect on binding of lysozyme to BBM (BBM; listed as Ca^++): inhibited

N.N.[Cl][Pt][Cl] [cisplatin]
effect on transport of N′-methylnicotinamide into vesicles of BBM (vesicles of BBM): inhibited
effect on transport of tetraethylamonium (TEA) into vesicles of BBM (vesicles of BBM): inhibited
effect on uptake of TEA (mouse kidney): inhibited
effect on uptake of p-aminohipputate (mouse kidney): inhibited

NCCCC[C@H](N)C(=O)O [lysine]
effect with the renal toxic effects of gentamicin ([1]; given with gentamicin): additive effect
effect on renal accumulation of lysozyme [3]: inhibited

Cc1ncc(COP(=O)(O)O)c(C=O)c1O [pyridoxal 5′-phsophate, pyridoxal 5′-phosphate]
effect on toxic effects of gentamicin ([6]; in vivo): inhibited
effect on toxic effects of spermine ([6]; positively charged renal toxin spermine): inhibited

C=C[C@H]1C[N@@]2CC[C@H]1C[C@H]2[C@H](O)c1ccnc2ccc(OC)cc12 [quinine]
effect on renal toxic effects of cisplatin [7]: provided protection
effect on renal toxic effects of cisplatin [8]: provided protection

NCCCNCCCCNCCCN [spermine]
effect on uptake of gentamicin by renal tubular BBM ([5]; renal tubular BBM): inhibited
effect on renal accumulation of lysozyme [3]: inhibited

Myoglobin
effect on renal accumulation of lysozyme [3]: without effect

aprotinin
time after administration at which level peaked in the kidney (kidney): 72 h
effect on renal absorption of gentamicin ([4]; in vivo): did not unambiguously inhibit
effect on binding of gentamicin to isolated renal brush border membranes [5]: inhibited

cytochrome C
effect on renal accumulation of lysozyme [3]: inhibited

polylycine
effect on binding of gentamicin to isolated renal brush border membranes [5]: inhibited
effect on acute toxic effects of whole animal nephrotoxicity (gentamicin) ([1]; whole animal): lessened

ribonuclease
effect on renal accumulation of lysozyme [3]: inhibited

tetralysine
effect on uptake of gentamicin in rat renal cortex ([4]; rat renal cortex): inhibited
